Tests used:
[1] = tested on: rat uterine decidualization; assay: Rat decidualization assay; assay type: in vivo; conditions: read-out: CV-1 IC50 (mg/kg): Percentage inhibition at the dose specified
Experimental: 1. Rat Decidualization Assay
b. Animals (RACUC Protocol #5002)
The animals are treated once daily for seven days.
Uteri are removed and trimmed of fat.
Body weight: Mean total animal body weight (default-kg)
Decidual response: [(D-C)/C]×100%

Row | Compound | melting point | inhibition in vivo at 10 mg/kg [1]
1 | Cc1cc(C#N)sc1-c1ccc2c(c1)C1(CCCCC1)OC(=O)N2 [Compound 10, 5-(1,2-Dihydro-2-oxospiro[4H-3,1-benzoxazine-4,1-cyclohexan]-6-yl)-4-methyl-2-thiophenecarbonitrile] | 200 to 203 °C | 50%
2 | N#Cc1ccc(-c2ccc3c(c2)C2(CCCCC2)OC(=O)N3)s1 [Compound 11, 5-(1,2-Dihydro-2-oxospiro[4H-3,1-benzoxazine-4,1-cyclohexan]-6-yl)-2-thiophenecarbonitrile] | – | 50%
3 | CCC1(CC)OC(=O)Nc2ccc(-c3cccc([N+](=O)[O-])c3)cc21 [Example 24, 4,4-Diethyl-6-(3-nitrophenyl)-1,4-dihydrobenzo[d][1,3]oxazin-2-one] | 193 to 194 °C | –
4 | CCC1(CC)OC(=O)Nc2ccc(-c3cccc(Cl)c3)cc21 [Example 25, 6-(3-Chlorophenyl)-4,4-diethyl-1,4-dihydrobenzo[d][1,3]oxazin-2-one] | 150 to 151 °C | –
5 | CC#CC1(C)OC(=O)Nc2ccc(-c3cccc(Cl)c3)cc21 (centres unmarked) [Example 37, 6-(3-Chlorophenyl)-4-methyl-4-propyn-1-yl-1,4-dihydro-benzo[d][1,3]oxazin-2-one] | 184 to 185 °C | –
6 | C#CC1(C)OC(=O)Nc2ccc(-c3cccc(Cl)c3)cc21 (centres unmarked) [Example 38, 6-(3-Chlorophenyl)-4-ethynyl-4-methyl-1,4-dihydro-benzo[d][1,3]oxazin-2-one] | 185 to 186 °C | –
7 | O=C1Nc2ccc(-c3cccc(Cl)c3)cc2C(C2CC2)(C2CC2)O1 [Example 43, 6-(3-Chloro-phenyl)-4,4-dicyclopropyl-1,4-dihydro-benzo[d][1,3]oxazin-2-one] | 198 to 200 °C | –
8 | COc1cccc(-c2ccc3c(c2)C(C)(C(F)(F)F)OC(=O)N3)c1 (centres unmarked) [Example 48, 6-(3-Methoxyphenyl)-4-methyl-4-trifluoromethyl-1,4-dihydro-benzo[d][1,3]oxazin-2-one] | 178 to 179 °C | –
9 | O=C1Nc2ccc(-c3cc(F)cc(Br)c3)cc2C(C2CC2)(C2CC2)O1 [Example 54, 6-(3-Bromo-5-fluoro-phenyl)-4,4-dicyclopropyl-1,4-dihydrobenzo-[d][1,3]oxazin-2-one] | 228 to 229 °C | –
10 | CC(C)(C)OC(=O)n1cccc1-c1ccc2c(c1)C(C)(C)OC(=O)N2 [Example 94, 2-(4,4-Dimethyl-2-oxo-1,4dihydro-2H-benzo[d][1,3]oxazin-6-yl)-pyrrole-1-carboxylic acid tert-butyl ester] | 176 °C | –

Further lines, with some results ahead:

Row | melting point | Compound | inhibition in vivo at 10 mg/kg [1]
11 | 230 to 231 °C (dec.) | CC1(C)OC(=O)Nc2ccc(-c3csc(C#N)c3)cc21 [Compound 17, 4-(4,4-Dimethyl-2-oxo-1,4-dihydro-2H-benzo[d][1,3]oxazin-6-yl)-thiophene-2-carbonitrile] | –
12 | 195 to 200 °C | Cc1cc(C#N)sc1-c1ccc2c(c1)C(C)(C)OC(=O)N2 [Compound 18, 5-(4,4-Dimethyl-2-oxo-1,4-dihydro-2H-benzo[d][1,3]oxazin-6-yl)-4-methyl-thiophene-2-carbonitrile] | –
13 | 158 to 159 °C | CC1(C)OC(=O)Nc2ccc(-c3cccc(Cl)c3)cc21 [Example 5, 6-(3-Chlorophenyl)-4,4-dimethyl-1,4-dihydrobenzo[d][1,3]oxazin-2-one] | –
14 | 236 to 237 °C | CC1(C)OC(=O)Nc2ccc(-c3cccc(C#N)c3)cc21 [Example 12, 3-(4,4-Dimethyl-2-oxo-1,4-dihydro-2H-benzo[d][1,3]oxazin-6-yl)-benzonitrile] | –
15 | 290 to 291 °C | CC1(C)OC(=O)Nc2ccc(-c3cncc(C#N)c3)cc21 [Example 16, 5-(4,4-Dimethyl-2-oxo-1,4-dihydro-2H-benzo[d][1,3]oxazin-6-yl)-nicotinonitrile] | –
16 | 255 to 256 °C | CC1(C)OC(=O)Nc2ccc(-c3coc(C#N)c3)cc21 [Example 23, 4-(4,4-Dimethyl-2-oxo-1,4-dihydro-2H-benzo[d][1,3]oxazin-6-yl)-furan-2-carbonitrile] | –
17 | 231 to 233 °C | Cc1cc(Br)cc(-c2ccc3c(c2)C(C)(C)OC(=O)N3)c1 [Example 56, 6-(3-Bromo-5-methyl-phenyl)-4,4-dimethyl-1,4-dihydrobenzo-[d][1,3]oxazin-2-one] | –
18 | 256 to 258 °C | Cc1cc(C#N)cc(-c2ccc3c(c2)C(C)(C)OC(=O)N3)c1 [Example 58, 3-(4,4-Dimethyl-2-oxo-1,4-dihydro-2H-benzo[d][1,3]oxazin-6-yl)-5-methyl-benzonitrile] | –
19 | 212 to 213 °C | CC1(C)OC(=O)Nc2ccc(-c3cccc(C#CC#N)c3)cc21 [Example 75, 3-[3-(4,4-Dimethyl-2-oxo-1,4-dihydro-2H-benzo[d][1,3]oxazin-6-yl)-phenyl]-propynenitrile] | –
20 | 288 to 289 °C | CC1(C)OC(=O)Nc2ccc(-c3cc(C#N)cc(C#N)c3)cc21 [Example 80, 5-(4,4-Dimethyl-2-oxo-1,4-dihydro-2H-benzo[d][1,3]oxazin-6-yl)-isophthalonitrile] | –
21 | 200 to 202 °C | CC1(C)OC(=O)Nc2ccc(-c3sccc3C#N)cc21 [Example 91, 2-(4,4-Dimethyl-2-oxo-1,4-dihydro-2H-benzo[d][1,3]oxazin-6-yl)-thiophene-3-carbonitrile] | –
22 | 200 to 203 °C | CC1(C)OC(=O)Nc2ccc(-c3cc(F)cc(-c4ccsc4)c3)cc21 [Example 93, 6-(3-Fluoro-5-thiophen-3-yl-phenyl)-4,4-dimethyl-1,4-dihydro-benzo[d][1,3]oxazin-2-one] | –
23 | 265 °C (dec.) | CC1(C)OC(=O)Nc2ccc(-c3ccc([N+](=O)[O-])[nH]3)cc21 [Example 96, 4,4-Dimethyl-6-(5-nitro-1H-pyrrol-2-yl)-1,4-dihydrobenzo[d][1,3]oxazin-2-one] | –
24 | 242 to 244 °C (dec.) | CC1(C)OC(=O)Nc2ccc(-c3cccc(S(N)(=O)=O)c3)cc21 [Example 140, 3-(4,4-Dimethyl-2-oxo-1,4-dihydro-2H-benzo[d][1,3]-oxazin-6-yl)benzenesulfonamide] | –
25 | 236 to 238 °C | CC1(C)OC(=O)Nc2ccc(-c3coc(C=NO)c3)cc21 [Example 145, 4-(1,4-Dihydro-4,4-dimethyl-2-oxo-2H-3,1-benzoxazin-6-yl)-2-furancarboxaldehyde oxime] | –

From US6759408B2 (Wyeth, priority 1999, dated 2004)
